# Results from PubChem BioAssay AID1117324 (Cheminformatics & Chemogenomics Research Group (CCRG), …, 2015).
# Calls of active or inactive are those of the source. No rule for the calls is given here.
# Tested on: VEGF-stimulated ADSC/ECFC co-culture, nuclear area imaging
# Experiment: nuclear area loss in endothelial-stromal co-culture, dose response, cell-based, VEGF stimulation, IC50 (AID 1117324)
row,Compound,IC50
1,CC(C)=CCNc1ncnc2c1ncn2[C@@H]1O[C@H](CO)[C@@H](O)[C@H]1O,> 10 µM (inactive)
2,O=C1NCN(c2ccccc2)C12CCN(CCCC(c1ccc(F)cc1)c1ccc(F)cc1)CC2,8.09 µM (inactive)
